From PMC2876208 (Cancer, 2010)
Structures can show the parent of a compound that is named as a salt.

Legend:
[1] = Phase 1 dose-escalation study: safety, adverse events; assay type: in vivo
Bcr-Abl F317V = conditions: cited from earlier work
Ph-positive CML or ALL = assay: Phase 1 study: cytogenetic and hematologic response; assay type: in vivo, human
Bcr-Abl F317L = conditions: cited from earlier work
[2] = Phase 1 study: pharmacokinetics in patients; assay type: in vivo, human; conditions: for half-life: Mean half-life
[3] = cited from earlier work
Lyn kinase = conditions: cited from earlier work
unmutated Bcr-Abl = conditions: cited from earlier work
[4] = 30 mg/kg dose level, 4-week; ref data on file, 24; cited from earlier work
[5] = biological target: other Src-family member kinases; conditions: cited from earlier work
CML = conditions: newly diagnosed patients with CML-CP; cited from earlier work

Cc1ccc(NC(=O)c2ccc(CN3CC[C@H](N(C)C)C3)c(C(F)(F)F)c2)cc1Nc1nccc(-c2cncnc2)n1 [INNO-406]
Adverse events, NCI category infection ([1]; % of patients, N = 56): 33.9% | Deaths since beginning treatment ([1]; all related to leukemia progression): Five | Adverse events, NCI category blood/bone marrow ([1]; human, in vivo): 25.0% | Adverse events, NCI category cardiac general ([1]; human, in vivo): 12.5% | Adverse events, NCI category constitutional symptoms ([1]; human, in vivo): 48.2% | Adverse events, NCI category dermatology/skin ([1]; human, in vivo): 28.6% | Adverse events, NCI category gastrointestinal ([1]; human, in vivo): 64.3% | Adverse events, NCI category hemorrhage/bleeding ([1]; human, in vivo): 10.7% | Adverse events, NCI category lymphatics ([1]; human, in vivo): 25.0% | Adverse events, NCI category metabolic/laboratory ([1]; human, in vivo): 73.2% | Adverse events, NCI category musculoskeletal/soft tissue ([1]; human, in vivo): 10.7% | Adverse events, NCI category neurology ([1]; human, in vivo): 23.2% | Adverse events, NCI category pain ([1]; human, in vivo): 58.9% | Adverse events, NCI category pulmonary/upper respiratory ([1]; human, in vivo): 17.9% | Drug-related acute renal failure ([1]; human, in vivo): 2 (4) No. (%) | Drug-related elevated creatinine ([1]; human, in vivo): 1 (2) No. (%) | Drug-related hypertension ([1]; human, in vivo): 1 (2) No. (%) | Drug-related hyperuricemia ([1]; human, in vivo): 1 (2) No. (%) | Drug-related increased ALT ([1]; human, in vivo): 9 (16) No. (%) | Drug-related increased GGT ([1]; human, in vivo): 2 (4) No. (%) | Drug-related increased bilirubin ([1]; human, in vivo): 2 (4) No. (%) | Drug-related intrahepatic cholestasis ([1]; human, in vivo): 1 (2) No. (%) | Drug-related prolonged QTc interval ([1]; human, in vivo): 1 (2) No. (%) | Drug-related thrombocytopenia ([1]; human, in vivo): 1 (2) No. (%) | Grade 3 thrombocytopenia, drug- and non-drug-related ([1]; human, in vivo): 2 patients | Grade 4 thrombocytopenia, drug- and non-drug-related ([1]; human, in vivo): 3 patients | QTc >500 msec ([1]; human, in vivo): 1 patient | QTcB increased to grade 2 ([1]; human, in vivo): 4 patients | QTcF increased to grade 2 ([1]; human, in vivo): 1 patient | Pleural or pericardial effusions ([1]; in vivo): No cases | Recommended phase 2 dose based on DLT and MTD ([1]; orally BID): 240 mg | Sensitivity of mutation in vitro (Bcr-Abl F317V): sensitive | Minimal-Minor Cytogenetic Response (Ph-positive CML or ALL; 60 mg QD, N = 3): 1 (33) n (%) | Complete Cytogenetic Response (Ph-positive CML or ALL; 120 mg BID, N = 6): 1 (17) n (%) | Complete Cytogenetic Response (Ph-positive CML or ALL; 120 mg QD, N = 6): 1 (17) n (%) | Complete Cytogenetic Response (Ph-positive CML or ALL; 240 mg BID, N = 17): 1 (6) n (%) | Partial Cytogenetic Response (Ph-positive CML or ALL; 240 mg BID, N = 17): 2 (12) n (%) | Minimal-Minor Cytogenetic Response (Ph-positive CML or ALL; 360 mg BID, N = 7): 1 (14) n (%) | Partial Cytogenetic Response (Ph-positive CML or ALL; 480 mg BID, N = 5): 1 (20) n (%) | Response in patients with T315I mutations (Ph-positive CML or ALL; 4 patients with T315I mutations): None | Complete Cytogenetic Response (Ph-positive CML or ALL; Total, all doses, N = 56): 3 (5) n (%) | Minimal-Minor Cytogenetic Response (Ph-positive CML or ALL; Total, all doses, N = 56): 2 (4) n (%) | Partial Cytogenetic Response (Ph-positive CML or ALL; Total, all doses, N = 56): 3 (5) n (%) | Complete and partial hematologic responses (Ph-positive CML or ALL; all doses): 3 patients | Major cytogenetic response rate (Ph-positive CML or ALL; all patients enrolled (6 of 56 patients)): 11% | Major cytogenetic responses (Ph-positive CML or ALL; patients treated with doses of 240 mg BID or greater): 4 | Responses (Ph-positive CML or ALL; patients with CML-AP, CML-BP, or Ph-positive ALL): No responses | Major cytogenetic response rate (Ph-positive CML or ALL; patients with CML-CP (6 of 31 patients)): 19% | Major cytogenetic responses (Ph-positive CML or ALL; patients with CML-CP, all doses): 6 patients | Sensitivity of mutation in vitro (Bcr-Abl F317L): sensitive | Mean time to achieve peak concentration ([2]; 240 mg BID cohort, SD = 0.5): 1.3 h | Mean (SD) accumulation factor ([2]; BID dosing): 2.73 (4.96) | Accumulation ([2]; day 15, 360 and 480 mg BID cohorts): accumulation of INNO-406 was observed | Dose proportionality of Cmax and AUC ([2]; entire study population, for AUC not demonstrable with BID dosing): dose proportional | Cmax ([2]; human, in vivo, oral, 240 mg): 0.487 µg/mL | half-life ([2]; human, in vivo, oral, BID dosing, day 1, SD 0.817): 1.99 h | half-life ([2]; human, in vivo, oral, BID dosing, day 15, SD 0.751): 2.28 h | In vivo potency relative to imatinib [3]: at least 10 times | Kinase activity (Lyn kinase): specific Lyn kinase activity | Inhibition of autophosphorylation relative to imatinib (unmutated Bcr-Abl): more potently inhibited | Deaths [4]: no deaths occurred | Kinase activity [5]: no or limited activity

Cc1ccc(NC(=O)c2ccc(CN3CCN(C)CC3)cc2)cc1Nc1nccc(-c2cccnc2)n1 [imatinib, imatinib mesylate]
Estimated 5 to 7-year survival rates (CML): over 90%
